Consider 15 compounds from patent US20170247326A1, “Substituted Pyrrolidine Carboxamide Compounds” (EPIZYME, INC., priority 2014, published 2017).

The target in one assay is T1, SMYD2 (Homo sapiens, UniProt Q9NRG4).
T1 construct: Full length SMYD2 (NP_064582.2) was cloned; His6 (N, cleaved yes); FLAG (N); made in house; host or cells: Sf9 insect cells
Put plainly: SMYD2 biochemical assay (3H-SAM, biotinylated peptide substrate, Flashplate). The conditions noted are these: average of n = 1 to n = 50, read-out: SMYD2 Biochem IC50. In short, it runs like this:
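Full-length His/FLAG-tagged SMYD2 (tag removed, Sf9-expressed) at 1.5 nM was preincubated with compound for 30 min at room temperature in Bicine pH 7.6 buffer with 2% DMSO. Reaction used 10 nM 3H-SAM and 60 nM biotinylated peptide, stopped with 600 uM cold SAM. Streptavidin-captured 3H-peptide counted; IC50 from 3- or 4-parameter fit.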

The subject of assay [1] is esophageal, liver and breast cancer cell lines. The conditions noted are these: dose-dependent; Nguyen et al. J Biol Chem. 2015; cited from earlier work.

Like-named read-outs stand apart in the source and are kept apart here.

T1 sequence (Q9NRG4 whole entry): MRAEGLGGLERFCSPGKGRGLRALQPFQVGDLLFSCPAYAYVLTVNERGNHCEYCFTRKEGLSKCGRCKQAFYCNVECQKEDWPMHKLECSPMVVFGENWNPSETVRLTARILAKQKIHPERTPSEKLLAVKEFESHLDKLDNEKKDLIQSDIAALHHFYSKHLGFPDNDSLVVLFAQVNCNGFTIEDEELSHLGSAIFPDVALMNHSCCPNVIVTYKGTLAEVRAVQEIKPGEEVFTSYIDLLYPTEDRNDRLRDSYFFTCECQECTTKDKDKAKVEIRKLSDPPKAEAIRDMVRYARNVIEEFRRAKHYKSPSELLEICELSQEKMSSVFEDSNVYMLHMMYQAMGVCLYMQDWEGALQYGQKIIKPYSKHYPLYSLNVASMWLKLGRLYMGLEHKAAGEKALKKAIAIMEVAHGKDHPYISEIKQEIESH

What is called IC50 is the concentration at which inhibition is half-maximal. Regarding `CC(C)N1C[C@H](C)[C@H](NC(=O)c2ccc3c(c2)NC(=O)CO3)C1` (single isomer, unassigned) [compound 32, (+)-cis-N-[4-methyl-1-(propan-2-yl)pyrrolidin-3-yl]-3-oxo-3,4-dihydro-2H-1,4-benzoxazine-6-carboxamide], the IC50 at SMYD2 (Table 3) is over 50 µM. In the case of `CC(C)N1C[C@H](C)[C@H](NC(=O)c2cc(C3CC3)cnn2)C1` (stereo in doubt) [compound 98, rel-5-cyclopropyl-N-[(3S,4S)-4-methyl-1-(propan-2-yl)pyrrolidin-3-yl]pyridazine-3-carboxamide], the IC50 on SMYD2 (Table 3) is 2.09 µM. With `CC(C)N1C[C@@H](C)[C@@H](NC(=O)c2cc(C3CC3)cnn2)C1` (stereo in doubt) [compound 101, rel-5-cyclopropyl-N-[(3R,4R)-4-methyl-1-(propan-2-yl)pyrrolidin-3-yl]pyridazine-3-carboxamide], the concentration for half-maximal inhibition (IC50) on SMYD2 (Table 3) is 0.245 µM. Take `C[C@H]1CN(Cc2ccc(OCc3ccccc3)cc2)C[C@H]1NC(=O)c1cn(C2CC2)nn1` (stereo in doubt) [compound 106, (±)-cis-N-(1-{[4-(benzyloxy)phenyl]methyl}-4-methylpyrrolidin-3-yl)-1-cyclopropyl-1H-1,2,3-triazole-4-carboxamide]: the IC50 at SMYD2 (Table 3) came to 0.46 µM. As to `CC(C)N1C[C@@H](C)[C@@H](NC(=O)c2cc(C3CC3)cnn2)C1` (stereo in doubt) [compound 110, (±)-cis-5-cyclopropyl-N-[4-methyl-1-(propan-2-yl)pyrrolidin-3-yl]pyridazine-3-carboxamide], the IC50 at SMYD2 (Table 3) is 0.424 µM. The same measure, in the same setting: for `CC(C)N1C[C@@H](C)[C@@H](NC(=O)c2cn(C3CC3)cn2)C1` (stereo in doubt) [compound 121, (±)-cis-1-cyclopropyl-N-(1-isopropyl-4-methylpyrrolidin-3-yl)-1H-imidazole-4-carboxamide] the value was 2.2 µM. For the compound `CC(C)N1C[C@H](C)[C@H](NC(=O)c2cn(C3CC3)cn2)C1` (stereo in doubt) [compound 123, rac-1-cyclopropyl-N-((3R,4R)-1-isopropyl-4-methylpyrrolidin-3-yl)-1H-imidazole-4-carboxamide], the IC50 on SMYD2 (Table 4) amounted to 2.2 µM. Still for that read-out and setting: the same measure for `C[C@@H]1CN(Cc2ccc(OCc3ccccc3)cc2)C[C@@H]1NC(=O)c1cn(C2CC2)nn1` (stereo in doubt) [compound 131, rac-N-((3R,4R)-1-(4-(benzyloxy)benzyl)-4-methylpyrrolidin-3-yl)-1-cyclopropyl-1H-1,2,3-triazole-4-carboxamide]: 0.46 µM. On to `Cc1cn(CCN2CCN(c3ccccc3-c3cc(C#N)cc(C(=O)NCCCN4CCCC4)c3)CC2)c2ccccc12` [LLY-507], for which the “proliferation of several esophageal, liver and breast cancer cell lines” value in assay [1] is reported as “inhibited the proliferation”. `CC(C)N1CCC(C(=O)Nc2cc(O)c3c(c2)OCC(=O)N3)C1` (stereo not drawn) [compound 87, N-(5-hydroxy-3-oxo-3,4-dihydro-2H-1,4-benzoxazin-7-yl)-1-(propan-2-yl)pyrrolidine-3-carboxamide]: at SMYD2 (Table 3), the IC50 is over 50 µM.

Take `CC(C)N1CCC(NC(=O)c2cc(C3CC3)cnn2)C1` (stereo not drawn) [compound 95, 5-cyclopropyl-N-[1-(propan-2-yl)pyrrolidin-3-yl]pyridazine-3-carboxamide]: on SMYD2 (Table 3), the IC50 was 6.07 µM.

With `CC(C)N1CC(NC(=O)c2cc(C3CC3)cnn2)CC1C` (stereo not drawn) [compound 120, 5-cyclopropyl-N-(1-isopropyl-5-methylpyrrolidin-3-yl)pyridazine-3-carboxamide], on SMYD2 (Table 3), the IC50 is 11.5 µM. Regarding `CN(C)C1CCC(NC(=O)c2cn(C3CC3)nn2)C1` (stereo not drawn) [compound 122, 1-cyclopropyl-N-[3-(dimethylamino)cyclopentyl]-1H-1,2,3-triazole-4-carboxamide], the IC50 on SMYD2 (Table 3) is over 50 µM. As for `CC(C)N1CC(NC(=O)c2cc(C3CC3)cnn2)CC1C` (stereo not drawn) [compound 125, 5-cyclopropyl-N-(1-isopropyl-5-methylpyrrolidin-3-yl)pyridazine-3-carboxamide], at SMYD2 (Table 4), the half-inhibitory concentration (IC50) stood at 11.5 µM. With “(±)-cis-N-(1-((2-aminoethyl)sulfonyl)-4-methylpyrrolidin-3-yl)-5-cyclopmpylpyridazine-3-carboxamide [compound 113]”, the IC50 at SMYD2 (Table 3) was over 50 µM.
